Source: the supplement of paper PMC11451515

Test system: SEM cells
Assay: cell viability relative to DMSO control; higher = less cytotoxic
Settings: 48 h
In short: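 NOMO1, SEM and P12-Ichikawa leukemia cells spent at least four passages adapting to each medium before use. They were seeded at 500 cells/well (NOMO1, SEM) or 1000 cells/well (P12-Ichikawa) in 5 μl in 1536-well plates and pin-dosed with library compounds in DMSO at 11 threefold steps from 47 μM down to 0.79 nM. After 48 h at 37°C, CellTiter-Glo One luminescence was read. Viability is reported as a percentage of the DMSO wells on each plate, with cell-free wells as background.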

[1] = RPMI 5 mM glucose + 10% dialyzed FBS, 0.000781 µM
[2] = RPMI 5 mM glucose + 10% dialyzed FBS, 0.00234 µM
[3] = RPMI 5 mM glucose + 10% dialyzed FBS, 0.00702 µM
[4] = RPMI 5 mM glucose + 10% dialyzed FBS, 0.0211 µM
[5] = RPMI 5 mM glucose + 10% dialyzed FBS, 0.0632 µM
[6] = RPMI 5 mM glucose + 10% dialyzed FBS, 0.19 µM
[7] = RPMI 5 mM glucose + 10% dialyzed FBS, 0.569 µM
[8] = RPMI 5 mM glucose + 10% dialyzed FBS, 1.71 µM
[9] = RPMI 5 mM glucose + 10% dialyzed FBS, 5.12 µM
[10] = RPMI 5 mM glucose + 10% dialyzed FBS, 15.4 µM
[11] = RPMI 5 mM glucose + 10% dialyzed FBS, 46.1 µM
[12] = HPLM + 10% dialyzed FBS, 0.000781 µM
[13] = HPLM + 10% dialyzed FBS, 0.00234 µM
[14] = HPLM + 10% dialyzed FBS, 0.00702 µM
[15] = HPLM + 10% dialyzed FBS, 0.0211 µM
[16] = HPLM + 10% dialyzed FBS, 0.0632 µM
[17] = HPLM + 10% dialyzed FBS, 0.19 µM
[18] = HPLM + 10% dialyzed FBS, 0.569 µM
[19] = HPLM + 10% dialyzed FBS, 1.71 µM
[20] = HPLM + 10% dialyzed FBS, 5.12 µM
[21] = HPLM + 10% dialyzed FBS, 15.4 µM
[22] = HPLM + 10% dialyzed FBS, 46.1 µM
[23] = RPMI 5 mM glucose + 10% FBS, 0.000781 µM
[24] = RPMI 5 mM glucose + 10% FBS, 0.00234 µM
[25] = RPMI 5 mM glucose + 10% FBS, 0.00702 µM
[26] = RPMI 5 mM glucose + 10% FBS, 0.0211 µM
[27] = RPMI 5 mM glucose + 10% FBS, 0.0632 µM
[28] = RPMI 5 mM glucose + 10% FBS, 0.19 µM
[29] = RPMI 5 mM glucose + 10% FBS, 0.569 µM
[30] = RPMI 5 mM glucose + 10% FBS, 1.71 µM
[31] = RPMI 5 mM glucose + 10% FBS, 5.12 µM
[32] = RPMI 5 mM glucose + 10% FBS, 15.4 µM
[33] = RPMI 5 mM glucose + 10% FBS, 46.1 µM

SMILES | cell viability [1] | cell viability [2] | cell viability [3] | cell viability [4] | cell viability [5] | cell viability [6] | cell viability [7] | cell viability [8] | cell viability [9] | cell viability [10] | cell viability [11] | cell viability [12] | cell viability [13] | cell viability [14] | cell viability [15] | cell viability [16] | cell viability [17] | cell viability [18] | cell viability [19] | cell viability [20] | cell viability [21] | cell viability [22] | cell viability [23] | cell viability [24] | cell viability [25] | cell viability [26] | cell viability [27] | cell viability [28] | cell viability [29] | cell viability [30] | cell viability [31] | cell viability [32] | cell viability [33]
CC(=O)OC[C@@H]1O[C@H]([C@H](OC(C)=O)[C@@H]1OC(C)=O)N2\C=C/C(=O)NC2=O | 118% | 109% | 137% | 119% | 114% | 143% | 113% | 112% | 122% | 108% | 93.9% |  |  |  |  |  |  |  |  |  |  |  |  |  |  |  |  |  |  |  |  |  | 
C[C@]1(O)CC(C1)C2=NC(=C3[N]2C=CN=C3N)C4=CC5=C(C=C4)C=CC(=N5)C6=CC=CC=C6 (configuration not stated) | 77.7% | 67.5% | 80.7% | 84% | 87.2% | 55.8% | 72.5% | 42.7% | 24.3% | 3.02% | 1.93% | 77.3% | 81.7% | 87.6% | 90.4% | 87.1% | 67.6% | 76% | 47.2% | 26.5% | 3.17% | 2.38% | 95.8% | 96.8% | 105% | 103% | 105% | 66.4% | 68.8% | 42.2% | 16.6% | 3.06% | 1.58%
Cc1ccc2nc(NCCN)c3ncc(C)n3c2c1 | 94.9% | 110% | 94.9% | 94.5% | 101% | 106% | 111% | 77.7% | 91% | 67.4% | 4.44% | 104% | 112% | 111% | 106% | 122% | 113% | 106% | 101% | 102% | 23.2% | 5.23% | 111% | 108% | 129% | 110% | 122% | 119% | 123% | 102% | 108% | 86.4% | 5.06%
CC(C)(N)c1ccc(-c2nc3ccccc3nc2-c2ccccc2)cc1 | 99.5% | 106% | 101% | 86.3% | 17.5% | 10% | 6.06% | 4.9% | 4.26% | 2.44% | 3.2% | 99.5% | 109% | 117% | 100% | 38.5% | 15.5% | 6.7% | 6.11% | 5.5% | 3.11% | 3.57% | 110% | 103% | 93.7% | 36.2% | 12.4% | 7.19% | 5.88% | 5.02% | 4.24% | 2.31% | 3.42%
Cc1cc(Nc2cc(N3CCN(C)CC3)nc(/C=C/c3ccccc3)n2)n[nH]1 | 100% | 112% | 97.1% | 112% | 95.3% | 57.8% | 28.2% | 6.13% | 4.41% | 3.5% | 5.17% | 83.9% | 109% | 112% | 96.5% | 95.4% | 60.3% | 36.6% | 6.67% | 5.57% | 4.53% | 5.51% | 86.5% | 108% | 94.1% | 112% | 93.8% | 60.6% | 29.5% | 5.23% | 4.53% | 3.57% | 4.68%
O=C(O)CCCCCC(=O)NN=C1CCCC1 | 100% | 99.2% | 111% | 119% | 120% | 101% | 111% | 128% | 117% | 127% | 110% | 88.6% | 100% | 99.5% | 104% | 119% | 114% | 114% | 117% | 119% | 110% | 104% | 89.8% | 99.3% | 106% | 104% | 96.1% | 104% | 114% | 113% | 100% | 108% | 93.2%
CCOC(=O)N1CCN(/[N+]([O-])=N/Oc2cc(O/N=[N+](\[O-])N3CCN(C(=O)OCC)CC3)c([N+](=O)[O-])cc2[N+](=O)[O-])CC1 | 117% | 113% | 130% | 145% | 166% | 138% | 134% | 108% | 113% | 142% | 122% | 90.7% | 86.6% | 93% | 98.6% | 117% | 115% | 122% | 74.4% | 119% | 117% | 116% | 129% | 110% | 118% | 137% | 142% | 138% | 136% | 101% | 142% | 145% | 128%
CCCN[C@H]1CCc2nc(N)sc2C1 | 89.2% | 37.6% | 98.3% | 101% | 119% | 125% | 106% | 105% | 112% | 111% | 91.4% | 93.2% | 42% | 98.4% | 98.8% | 104% | 96.4% | 95.4% | 99.2% | 104% | 99.8% | 105% | 91.7% | 39.1% | 99.4% | 87.3% | 96.2% | 98.9% | 103% | 97.6% | 85.6% | 105% | 104%
